Reference: patent US12016974B2, “Nitric oxide releasing surfaces for decreased fouling, thrombosis, and infection of medical devices” (priority 2016, dated 2024)
≈ marks a conversion by molar mass, not a printed value.

Columns and labels:
[1] = Solubility of SNAP in silicone oil; type: physicochemical; settings: oil or lipid, thermodynamic from solid
Experimental: Leaching of SNAP from the silicone tubing was repeated during the oil swelling process as well, to ensure large amounts of SNAP were not lost during the 3-day swelling period. Sections of SNAP impregnated tubing were massed and placed in 4 mL of silicone oil. The absorbance spectra of silicone oil were taken to ensure no interference would be seen between the SNAP maxima and the oil. […] Therefore, the same calibration curve of SNAP in PBS-EDTA was used for determining SNAP concentration in the silicone oil. Solubility of SNAP in silicone oil was determined by adding 10 mg/mL and put on a vortex mixer for 2 min. The suspension was then centrifuged (10 min, 3000 rpm), and a 1 mL sample of the silicone oil was taken for UV vis spectroscopy.

[2] = after 6 months at room temperature; cited from earlier work

In the case of `CC(=O)N[C@@H](C(=O)O)C(C)(C)SN=O` (racemic) [SNAP, S-nitroso-N-acetylpenicillamine], the solubility at 2 min [1] is listed as 0.4 µg/mL (≈ 1.82 µM) and the “SNAP activity retained within a polymer matrix” value [2] is listed as 87%.
